How the values were obtained:
BSA = target: T1, BSA (Bos taurus, UniProt P02769); assay: Far-UV CD secondary structure of BSA (CONTIN-LL deconvolution); type: physicochemical, bovine; set-up: Regular Alpha Helix / Distorted Alpha Helix / Regular Beta Sheet / Distorted Beta Sheet / Turns / Unordered: unit not given here; settings: 1.0 mg/mL BSA, 25 °C
T1 construct: purchased Millipore Sigma-Aldrich
Method in brief: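 Far-UV CD spectra (190–260 nm) of BSA at 1 mg/mL with solvent at 0.1 to 200 mM, 10 mm cuvette, room temperature, 50 nm/min, 4 accumulations, duplicates combined. Converted to MRE; secondary structure deconvoluted by CONTIN-LL with SMP180 reference set.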

FITC-BSA = target: T2, FITC-BSA (Bos taurus, UniProt P02769); assay: MST binding to FITC-BSA; set-up: species or system bovine; settings: 0.41 μM BSA
T2 construct: purchased Millipore Sigma-Aldrich
T2 sequence (P02769 25-607): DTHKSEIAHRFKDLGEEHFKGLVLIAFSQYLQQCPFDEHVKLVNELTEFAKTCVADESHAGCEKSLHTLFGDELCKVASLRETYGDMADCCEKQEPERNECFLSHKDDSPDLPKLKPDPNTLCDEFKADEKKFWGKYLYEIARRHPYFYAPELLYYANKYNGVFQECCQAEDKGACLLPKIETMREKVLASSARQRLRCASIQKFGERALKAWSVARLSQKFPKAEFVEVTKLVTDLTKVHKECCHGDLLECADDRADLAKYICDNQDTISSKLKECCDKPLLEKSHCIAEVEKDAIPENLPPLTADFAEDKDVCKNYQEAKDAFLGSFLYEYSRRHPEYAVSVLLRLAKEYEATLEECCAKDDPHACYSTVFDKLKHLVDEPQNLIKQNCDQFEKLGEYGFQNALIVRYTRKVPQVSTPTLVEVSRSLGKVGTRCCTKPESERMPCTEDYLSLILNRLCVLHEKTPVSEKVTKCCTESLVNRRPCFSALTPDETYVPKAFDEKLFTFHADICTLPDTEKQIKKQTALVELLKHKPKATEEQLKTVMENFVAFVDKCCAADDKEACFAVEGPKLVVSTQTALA
Method in brief: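 FITC-labelled BSA, fixed at 0.4 μM in PBS, measured by microscale thermophoresis (medium MST power, 20% LED) against 16 1:1 ligand dilutions from starting concentrations of 10–400 mM. Traces recorded 5 s off, 30 s on, 5 s off. Data from three independently pipetted experiments analysed.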

T1 sequence (P02769 25-607): as above

`C[N+](C)(C)CCO.O=S(=O)([O-])C(F)(F)C(F)(F)C(F)(F)C(F)(F)F` [[N1112(OH)][C4F9SO3], (2-hydroxyethyl)trimethylammonium perfluorobutane sulfonate] was tested, and the “Distorted Alpha Helix” value (BSA; 0.1 mM component) was 0.214, the “Distorted Beta Sheet” value (BSA; 0.1 mM component) was 0.025 and the “Regular Alpha Helix” value (BSA; 0.1 mM component) was 0.418. The “Regular Beta Sheet” value (BSA; 0.1 mM component) was 0.000, the Turns (BSA; 0.1 mM component) was 0.138 and the Unordered (BSA; 0.1 mM component) was 0.205. The “Distorted Alpha Helix” value (BSA; 1 mM component) was 0.225, the “Distorted Beta Sheet” value (BSA; 1 mM component) was 0.024 and the “Regular Alpha Helix” value (BSA; 1 mM component) was 0.428. For the same compound, the “Regular Beta Sheet” value (BSA; 1 mM component) was 0.000, the Turns (BSA; 1 mM component) was 0.138 and the Unordered (BSA; 1 mM component) was 0.185. For the same compound, the “Distorted Alpha Helix” value (BSA; 5 mM component) was 0.222, the “Distorted Beta Sheet” value (BSA; 5 mM component) was 0.025 and the “Regular Alpha Helix” value (BSA; 5 mM component) was 0.423. For the same compound, the “Regular Beta Sheet” value (BSA; 5 mM component) was 0.000, the Turns (BSA; 5 mM component) was 0.139 and the Unordered (BSA; 5 mM component) was 0.192. For the same compound, the “Distorted Alpha Helix” value (BSA; 25 mM component) was 0.215, the “Distorted Beta Sheet” value (BSA; 25 mM component) was 0.025 and the “Regular Alpha Helix” value (BSA; 25 mM component) was 0.406. For the same compound, the “Regular Beta Sheet” value (BSA; 25 mM component) was 0.000, the Turns (BSA; 25 mM component) was 0.140 and the Unordered (BSA; 25 mM component) was 0.214. The “Distorted Alpha Helix” value (BSA; 55 mM component) was 0.208, the “Distorted Beta Sheet” value (BSA; 55 mM component) was 0.027 and the “Regular Alpha Helix” value (BSA; 55 mM component) was 0.392. The “Regular Beta Sheet” value (BSA; 55 mM component) was 0.000, the Turns (BSA; 55 mM component) was 0.144 and the Unordered (BSA; 55 mM component) was 0.228. The “Distorted Alpha Helix” value (BSA; 90 mM component) was 0.199, the “Distorted Beta Sheet” value (BSA; 90 mM component) was 0.036 and the “Regular Alpha Helix” value (BSA; 90 mM component) was 0.376. The “Regular Beta Sheet” value (BSA; 90 mM component) was 0.022, the Turns (BSA; 90 mM component) was 0.152 and the Unordered (BSA; 90 mM component) was 0.215. The “Distorted Alpha Helix” value (BSA; 120 mM component) was 0.205, the “Distorted Beta Sheet” value (BSA; 120 mM component) was 0.032 and the “Regular Alpha Helix” value (BSA; 120 mM component) was 0.400. The “Regular Beta Sheet” value (BSA; 120 mM component) was 0.012, the Turns (BSA; 120 mM component) was 0.147 and the Unordered (BSA; 120 mM component) was 0.203. The “Distorted Alpha Helix” value (BSA; 200 mM component) was 0.207, the “Distorted Beta Sheet” value (BSA; 200 mM component) was 0.032 and the “Regular Alpha Helix” value (BSA; 200 mM component) was 0.406. The “Regular Beta Sheet” value (BSA; 200 mM component) was 0.017, the Turns (BSA; 200 mM component) was 0.147 and the Unordered (BSA; 200 mM component) was 0.191. The Kd (FITC-BSA; max. conc. first capillary below 1st CAC (monomer)) was “no binding detected” and the Kd (FITC-BSA; max. conc. first capillary in 3rd CAC range) was “no binding detected”.
